According to patent US8338422B2, “Indolin-2-ones and aza-indolin-2-ones” (Janssen Pharmaceutica NV, priority 2007, dated 2012):
Several values for one entry are separate records, joined by “and”; a condition that tells them apart may be missing. Equal entries are not always repeated.

Columns and labels:
[1] = test system: Colo205; experiment: Cellular proliferation assay (Alamar blue), Colo205; type: cell-based; details: Homo sapiens, COLO 205, Colo205 cells, 72 hours with compound, 10% FCS, read-out: pIC50 Colo205 (converted)
Description: (§1) […] functional properties of these compounds was tested in cellular proliferation assays on a panel of different cell lines in the presence of 10% FCS serum (37° C. and 5% (v/v) CO2). In a first step these cells were seeded and incubated for 24 hours in the absence of compound. In the second step the cells were incubated for 72 hours with the compounds to be tested for 72 hours. The viable cell number was finally assessed in a standard Alamar blue cell viability assay.
(§2) The viable cell number was assessed by incubation for either 4 h (HCT-116, H1299, H460) 6 h (SKOV3, HT29, U87-MG, Colo205) or 24 h (A2780, PC3, MDA-MB-231, A549, MCF-7) with Alamar blue (Resazurin 9 μg/ml, K-Ferrocyanide 90 μM K-Ferricyanide 90 μM) and the converted fluorescent product was quantified on a fluorescent plate readed (544 nm/590 nm). Effect of the compounds is calculated as of on control cells.

[2] = molecular target: AuroraB (h) (Homo sapiens, UniProt Q96GD4); experiment: Aurora-B human kinase assay (SPA); type: biochemical; details: read-out: AuroraB pIC50 (converted)
Summary of the method: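 Scintillation proximity assay: AuroraB (h) at 0.5 μg/ml with 3 μM biotinylated peptide, 0.5 μM ATP and 2.2 nM [γ-33P]ATP in 60 mM Hepes pH 7.5, 3 mM MgCl2, 3 mM MnCl2, 2 mM DTT. 60 min at room temperature, EDTA stop, streptavidin PVT beads read on Leadseeker.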

[3] = test system: H460; experiment: Cellular proliferation assay (Alamar blue), H460; type: cell-based; details: Homo sapiens, NCI-H460, H460 cells, 72 hours with compound, 10% FCS, read-out: pIC50 H460 (converted)
Description: as §1, §2

[4] = test system: PC-3; experiment: Cellular proliferation assay (Alamar blue), PC-3; type: cell-based; details: Homo sapiens, PC-3, 72 h, PC-3 cells, 72 hours with compound, 10% FCS, read-out: pIC50 PC-3 (converted)
Summary of the method: (§3)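 Proliferation was assessed over 72 h of compound treatment, following 24 h of seeding without compound, under 10% FCS, 37° C. and 5% CO2. Fluorescent resazurin product was measured and compared with control cells.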

[5] = test system: SKOV3; experiment: Cellular proliferation assay (Alamar blue), SKOV3; type: cell-based; details: Homo sapiens, SK-OV-3, SKOV3 cells, 72 hours with compound, 10% FCS, read-out: pIC50 SKOV3 (converted)
Summary of the method: as §3

[6] = test system: MDA/MB231; experiment: Cellular proliferation assay (Alamar blue), MDA/MB231; type: cell-based; details: Homo sapiens, MDA-MB-231, 72 h, MDA/MB231 cells, 72 hours with compound, 10% FCS, read-out: pIC50 MDA/MB231 (converted)
Summary of the method: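 Cells in 10% FCS were seeded and left 24 h without compound, then treated for 72 h at 37° C. Viability read with Alamar blue (resazurin 9 μg/ml, ferro-/ferricyanide 90 μM each), incubated 4 h for H460 and 24 h for MDA-MB-231; fluorescence 544/590 nm, effect relative to control cells.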

[7] = test system: MCF-7; experiment: Cellular proliferation assay (Alamar blue), MCF-7; type: cell-based; details: Homo sapiens, MCF7, MCF-7 cells, 72 hours with compound, 10% FCS, read-out: pIC50 MCF-7 (converted)
Description: as §1, §2

[8] = test system: H1299; experiment: Cellular proliferation assay (Alamar blue), H1299; type: cell-based; details: Homo sapiens, NCI-H1299, 72 h, H1299 cells, 72 hours with compound, 10% FCS, read-out: pIC50 H1299 (converted)
Summary of the method: as §3

[9] = molecular target: GSK3β (h) (Homo sapiens, UniProt P49841); experiment: GSK-3β human kinase assay (SPA); type: biochemical; details: read-out: GSK3B pIC50 (converted)
Summary of the method: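 Radiometric SPA read-out: after EDTA stop, biotinylated 33P-labelled peptide bound streptavidin PVT beads and was imaged on Leadseeker. Reaction: 60 min, room temperature, GSK3β (h) at 1 μg/ml, 1 μM substrate peptide, 1 μM ATP with 2 nM [γ-33P]ATP, Tris pH 7.4/MgCl2/DTT buffer.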

[10] = test system: DU-145; experiment: Cellular proliferation assay (Alamar blue), DU-145; type: cell-based; details: Homo sapiens, DU-145 cells, 72 hours with compound, 10% FCS, read-out: pIC50 DU-145 (converted)
Description: as §1, §2

[11] = test system: A431; experiment: Cellular proliferation assay (Alamar blue), A431; type: cell-based; details: Homo sapiens, A-431, A431 cells, 72 hours with compound, 10% FCS, read-out: pIC50 A431 (converted)
Description: as §1, §2

[12] = molecular target: PLK4 (h) (Homo sapiens, UniProt O00444); experiment: PLK-4 human kinase assay (SPA); type: biochemical; details: read-out: PLK4 pIC50 (converted)
Summary of the method: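 Radiometric readout: 33P-labelled peptide captured on streptavidin SPA beads after EDTA stop, imaged by Leadseeker. Reaction ran 60 min at room temperature in Hepes pH 8.0 buffer. It contained 1 μM ATP with 2 nM [γ-33P]ATP, 10 μM biotinylated peptide and PLK4 (h) at 19 μg/ml.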

[13] = test system: A549; experiment: Cellular proliferation assay (Alamar blue), A549; type: cell-based; details: Homo sapiens, A549 cells, 72 hours with compound, 10% FCS, read-out: pIC50 A549 (converted)
Description: as §1, §2

AuroraB (h), sequence (Q96GD4 whole entry): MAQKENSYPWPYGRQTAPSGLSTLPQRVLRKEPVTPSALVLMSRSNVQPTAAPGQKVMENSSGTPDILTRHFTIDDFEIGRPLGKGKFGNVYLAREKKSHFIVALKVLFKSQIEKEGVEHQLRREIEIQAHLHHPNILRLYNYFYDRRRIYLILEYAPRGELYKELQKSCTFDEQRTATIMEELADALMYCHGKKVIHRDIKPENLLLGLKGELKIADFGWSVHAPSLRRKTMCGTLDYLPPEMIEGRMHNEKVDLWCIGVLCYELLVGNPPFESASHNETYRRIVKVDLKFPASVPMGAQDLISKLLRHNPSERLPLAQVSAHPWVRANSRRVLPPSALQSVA
GSK3β (h), sequence (P49841 whole entry): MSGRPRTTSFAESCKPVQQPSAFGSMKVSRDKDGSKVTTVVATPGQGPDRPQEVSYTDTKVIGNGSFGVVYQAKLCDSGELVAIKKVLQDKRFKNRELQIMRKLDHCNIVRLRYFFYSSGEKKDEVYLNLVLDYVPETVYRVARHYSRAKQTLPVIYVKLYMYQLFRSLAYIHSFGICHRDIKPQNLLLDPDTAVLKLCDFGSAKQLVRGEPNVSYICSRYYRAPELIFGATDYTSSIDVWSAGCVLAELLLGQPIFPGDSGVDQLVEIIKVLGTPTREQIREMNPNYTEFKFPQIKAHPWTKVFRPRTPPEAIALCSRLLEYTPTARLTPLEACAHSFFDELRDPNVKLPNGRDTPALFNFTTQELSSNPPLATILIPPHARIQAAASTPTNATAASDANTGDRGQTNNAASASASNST
PLK4 (h), sequence (O00444 whole entry): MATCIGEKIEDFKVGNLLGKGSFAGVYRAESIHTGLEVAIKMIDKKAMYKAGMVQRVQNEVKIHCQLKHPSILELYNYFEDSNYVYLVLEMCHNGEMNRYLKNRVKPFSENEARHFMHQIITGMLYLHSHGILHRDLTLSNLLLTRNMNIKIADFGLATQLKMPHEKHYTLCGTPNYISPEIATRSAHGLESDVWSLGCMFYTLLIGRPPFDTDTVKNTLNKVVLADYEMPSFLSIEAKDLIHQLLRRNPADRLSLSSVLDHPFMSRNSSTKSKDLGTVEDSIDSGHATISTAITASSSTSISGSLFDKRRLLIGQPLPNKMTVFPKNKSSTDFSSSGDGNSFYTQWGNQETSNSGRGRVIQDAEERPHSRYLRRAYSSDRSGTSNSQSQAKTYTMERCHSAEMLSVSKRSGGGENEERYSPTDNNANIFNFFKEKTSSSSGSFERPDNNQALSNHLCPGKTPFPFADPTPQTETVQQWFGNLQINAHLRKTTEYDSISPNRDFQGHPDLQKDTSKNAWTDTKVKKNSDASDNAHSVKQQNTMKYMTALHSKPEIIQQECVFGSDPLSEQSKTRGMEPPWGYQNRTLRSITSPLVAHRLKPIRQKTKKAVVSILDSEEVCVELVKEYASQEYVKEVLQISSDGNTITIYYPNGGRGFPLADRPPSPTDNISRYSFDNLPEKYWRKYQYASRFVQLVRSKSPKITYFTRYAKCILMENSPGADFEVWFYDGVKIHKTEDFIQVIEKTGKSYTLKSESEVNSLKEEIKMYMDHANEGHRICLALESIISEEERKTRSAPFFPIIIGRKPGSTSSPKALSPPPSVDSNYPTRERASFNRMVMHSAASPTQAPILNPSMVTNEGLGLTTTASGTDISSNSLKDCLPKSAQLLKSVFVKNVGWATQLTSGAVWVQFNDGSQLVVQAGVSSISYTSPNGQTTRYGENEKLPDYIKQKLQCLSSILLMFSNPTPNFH

SMILES	IC50 [1]	IC50 [2]	IC50 [3]	IC50 [4]	IC50 [5]	IC50 [6]	IC50 [7]	IC50 [8]	IC50 [9]	IC50 [10]	IC50 [11]	IC50 [12]	IC50 [13]
COc1ccc2cc1OCCCC(=O)N(C)CCCN(C)c1ncnc3c1/C(=C/N2)C(=O)N3 [Compound 31]	1950 nM	1380 nM and 1580 nM	1000 nM	1660 nM	1350 nM	1910 nM	575 nM	646 nM	309 nM and 313 nM	1230 nM	> 10000 nM	525 nM	537 nM
COc1ccc2cc1OCCCCCC(=O)N1CCN(CC1)c1ncnc3c1/C(=C/N2)C(=O)N3 [Compound 18]	> 10000 nM	> 10000 nM	> 10000 nM	2340 nM	2090 nM	> 10000 nM	5750 nM	> 10000 nM	891 nM	> 10000 nM	> 10000 nM	4790 nM	> 10000 nM
COc1ccc2cc1OCCCC(=O)N(C)CCCNc1ncnc3c1/C(=C/N2)C(=O)N3 [Compound 9]	354 nM	50.1 nM and 51.3 nM	372 nM	457 nM	339 nM	1380 nM	< 302 nM	407 nM	20.9 nM and 23.4 nM	< 302 nM	1450 nM	55 nM and 52.5 nM	< 302 nM
